# “Also recorded” adds a separate entry of the source.
# What was measured:
# osteoclasts = assay: Initial study of osteoclastic and osteoblastic activity on exposure to doxycycline; format: cell-based; details: exposed to doxycycline
# Text: Doxycycline bonds to internal and external calcium ions causing osteoclasts to detach from the bone, thus decreasing or stopping bone loss. […] The stoppage of bone loss and the maintenance of bone regeneration results in a net gain of new bone over time as long as the doxycycline is continually delivered to the bone/tissue interface with the currently disclosed method.
# alveolar bone = assay: Clinical cases: topical tray delivery to the periodontal pocket, alveolar bone and gingival tissue regrowth; format: in vivo, patient
# Text: (§1) One exemplary method will now be described. An initial examination determines the conditions of the patient's periodontal disease. Models of the patient along with their periodontal probing is forwarded to a laboratory registered to make the custom formed medical device (Perio Tray), which is capable of delivering about 1.7% hydrogen peroxide gel (Perio Gel) to the diseased tissue. […] The depth of the biofilm and the tissue damage that exist determines the frequency and duration of usage. Patients with severe tissue damage (6 mm or greater) use the Perio Tray about 4 times a day. Patients with moderate damage (3 mm to 6 mm) use the Perio Tray about 3 times a day and patients maintain their health using the trays once or twice a day for about 15 minutes.
# After the photographs of FIGS. 12A, 14A, 16A, and 18A were taken in 2004, the patient began a treatment as described above that included regular direct/topical medication delivery to the a to the gingival sulcus and/or periodontal pocket 37 in 2004 delivering doxycycline subgingival and interproximal with the medicament delivery tray.
# The fact teeth appear longer as we age is supported in the literature. This is explained as a greater action of osteoclasts as compared to the cellular activity of osteoblasts with a resultant decrease in alveolar bone 40B around the patient's teeth 10 with an accompanying loss of gingival tissue 24B appearing as receding gum tissue 24B and the exposure of a greater root surface making the teeth 10 appear longer.
# oral biofilm = assay: Penetration and eradication of oral biofilm by hydrogen peroxide gel
# Text: as §1
# [1] = oxygen delivered directly to the tissues
Compound,formation of new osteoclasts from osteoclastic precursor cells (osteoclasts),osteoblastic activity (osteoclasts),osteoclastic activity (osteoclasts),"tooth mobility (alveolar bone; case studies, direct delivery to the periodontal pocket)",formation of new osteoclasts by precursor cells (alveolar bone; clinic tests),bone loss and bone regeneration (alveolar bone; delivery to gingival sulcus or periodontal pocket),attachment of osteoclasts to bone (alveolar bone; lengthy clinic tests),cellular activity of osteoblasts (alveolar bone; lengthy clinic tests),"alveolar bone (radiographs) (alveolar bone; patient treated 1976 to 2012, hydrogen peroxide and topically applied doxycycline)",kill of biofilm bacteria (oral biofilm) [%],eradication of biofilm bacteria (biofilm bacteria; in 14 to 17 days) [%],time to bring to an end the facultative anaerobes (biofilm bacteria; [1]) [days],time to kill the obligate anaerobes (biofilm bacteria; [1]) [days]
C[C@H]1c2cccc(O)c2C(=O)C2=C(O)[C@]3(O)C(=O)C(C(N)=O)=C(O)[C@@H](N(C)C)[C@@H]3[C@@H](O)[C@@H]21 [doxycycline],completely abrogated,augmentation,decrease,decrease,completely stopped; also recorded: completely abrogates,stops bone loss and augments bone regeneration,inhibit,maintain or increase,regrown and increased,–,–,–,–
OO [hydrogen peroxide],–,–,–,–,–,–,–,–,–,99.999,99.98,7,2
